Test results: patent US20250213571A1, “TYK2 INHIBITORS AND USES THEREOF” (Alumis Inc., priority 2022, published 2025)

Columns and labels:
[1] = molecular target: human TYK2 (JH2domain-pseudokinase) (Homo sapiens (Human), UniProt P29597); test: TYK2 JH2 domain binding assay (KINOMEscan)
Outline: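 KINOMEscan competition: DNA-tagged NFkB-fusion kinase domains from HEK293 extracts (<0.1 nM) bound immobilized ligand with compound for 1 hour at room temperature, 0.9% DMSO. Bead-retained kinase was quantified by qPCR. Kd came from 11-point 3-fold series from 30,000 nM top, in duplicate, Hill fit with slope −1.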

TYK2 JH1 = TYK2 JH1 (Homo sapiens (Human), UniProt P29597); test: TYK2 JH1 binding (Kd, Table 2); settings: JH1 domain
Sequence of TYK2 JH1 (P29597 897-1176): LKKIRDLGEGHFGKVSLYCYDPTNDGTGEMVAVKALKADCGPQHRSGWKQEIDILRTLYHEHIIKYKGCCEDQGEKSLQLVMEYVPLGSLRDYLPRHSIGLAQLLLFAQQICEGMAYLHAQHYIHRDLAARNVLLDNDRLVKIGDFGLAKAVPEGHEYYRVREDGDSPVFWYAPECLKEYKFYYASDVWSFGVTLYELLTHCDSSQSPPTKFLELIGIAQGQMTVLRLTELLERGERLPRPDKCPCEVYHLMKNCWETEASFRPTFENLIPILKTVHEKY

JAK3 JH1 = JAK3 JH1 (Homo sapiens (Human), UniProt P52333); test: JAK3 JH1 binding (Kd, Table 2); settings: JH1 domain
Sequence of JAK3 JH1 (P52333 822-1111): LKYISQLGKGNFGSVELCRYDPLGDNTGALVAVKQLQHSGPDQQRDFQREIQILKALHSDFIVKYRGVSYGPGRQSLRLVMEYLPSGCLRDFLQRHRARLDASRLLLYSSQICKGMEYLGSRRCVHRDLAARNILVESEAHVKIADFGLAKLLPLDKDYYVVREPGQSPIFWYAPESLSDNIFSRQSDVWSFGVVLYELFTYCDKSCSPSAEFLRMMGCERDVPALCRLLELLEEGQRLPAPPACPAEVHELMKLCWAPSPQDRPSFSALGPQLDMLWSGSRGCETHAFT

JAK2 JH2 = JAK2 JH2 (Homo sapiens (Human), UniProt O60674); test: JAK2 JH2 binding (Kd, Table 2); settings: JH2 domain
Sequence of JAK2 JH2 (O60674 545-809): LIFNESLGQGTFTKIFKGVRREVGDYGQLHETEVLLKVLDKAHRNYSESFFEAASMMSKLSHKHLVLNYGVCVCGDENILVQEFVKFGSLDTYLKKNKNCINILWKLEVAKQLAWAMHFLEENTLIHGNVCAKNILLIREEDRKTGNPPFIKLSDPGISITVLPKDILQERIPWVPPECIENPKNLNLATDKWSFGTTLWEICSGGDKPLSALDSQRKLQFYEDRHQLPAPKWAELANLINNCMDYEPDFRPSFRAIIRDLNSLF

JAK2 JH1 = JAK2 JH1 (Homo sapiens (Human), UniProt O60674); test: JAK2 JH1 binding (Kd, Table 2); settings: JH1 domain
Sequence of JAK2 JH1 (O60674 849-1124): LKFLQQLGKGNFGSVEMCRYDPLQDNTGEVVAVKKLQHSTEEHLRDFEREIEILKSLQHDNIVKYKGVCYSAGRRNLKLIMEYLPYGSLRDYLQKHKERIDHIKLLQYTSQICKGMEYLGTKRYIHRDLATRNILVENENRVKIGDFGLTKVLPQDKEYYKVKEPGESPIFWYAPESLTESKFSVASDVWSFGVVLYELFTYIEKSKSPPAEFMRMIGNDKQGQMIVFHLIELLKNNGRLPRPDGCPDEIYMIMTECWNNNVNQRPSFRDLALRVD

JAK1 JH2 = JAK1 JH2 (Homo sapiens (Human), UniProt P23458); test: JAK1 JH2 binding (Kd, Table 2); settings: JH2 domain
Sequence of JAK1 JH2 (P23458 583-855): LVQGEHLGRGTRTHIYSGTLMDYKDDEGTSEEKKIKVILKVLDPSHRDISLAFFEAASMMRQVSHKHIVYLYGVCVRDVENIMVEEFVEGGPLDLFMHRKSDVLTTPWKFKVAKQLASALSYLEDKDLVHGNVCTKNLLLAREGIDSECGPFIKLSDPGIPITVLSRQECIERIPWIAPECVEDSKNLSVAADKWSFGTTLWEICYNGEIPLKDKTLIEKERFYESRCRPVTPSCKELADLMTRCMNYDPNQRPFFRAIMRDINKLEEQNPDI

JAK1 JH1 = JAK1 JH1 (Homo sapiens (Human), UniProt P23458); test: JAK1 JH1 binding (Kd, Table 2); settings: JH1 domain
Sequence of JAK1 JH1 (P23458 875-1153): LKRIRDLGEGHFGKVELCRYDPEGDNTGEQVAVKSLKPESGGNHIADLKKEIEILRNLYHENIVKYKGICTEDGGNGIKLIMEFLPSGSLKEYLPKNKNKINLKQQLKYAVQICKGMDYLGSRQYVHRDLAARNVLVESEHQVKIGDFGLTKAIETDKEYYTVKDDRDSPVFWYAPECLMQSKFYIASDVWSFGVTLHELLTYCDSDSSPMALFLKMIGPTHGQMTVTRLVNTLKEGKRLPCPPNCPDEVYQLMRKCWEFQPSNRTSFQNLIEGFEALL

IFNa, PBMCs, p-STAT3 = test: IFNa induced p-STAT3 in PBMCs; format: cell-based; settings: Homo sapiens, PBMC, IFNa stimulated PBMCs
[2] = tested on: INFα Induced pSTAT5 in Human PBMC; test: INFα induced pSTAT5 in human PBMC; format: cell-based; settings: 0.25 h, human PBMCs, INFα 5000 units/ml 15 minutes, p-STAT5, read-out: IFNa, PBMCs, p-STAT5 (IC50)
Experimental: Fresh Human PBMCs were resuspended in RPMI 1640 medium with 10% FBS. Cells were seeded in a round bottom 96-well plate at the concentration of 200,000 cells/well. A 10-point dilution series of test compound (top dose 10 uM, 1:5 dilution) was added to the well using the liquid dispenser (Tecan D300e) and incubated for 1 hour at 37 C. Then human INFα recombinant protein (R&D Systems) was added to the well at the final concentration of 5000 units/ml and incubated for 15 minutes at 37 C. Cell lysates were prepared and analyzed by Phospho STAT5 (Tyr693) Kit (Meso Scale Discovery) following manufacturer's protocol.
For calculation of the inhibition rate, the relative pSTAT5 signal of each well=pSTAT5 signal of each well−the average pSTAT5 signal of baseline.
The inhibition %=(the average pSTAT5 signal of INFα treatment wells−the relative of pSTAT5 signal in each compound containing well)/the average pSTAT5 signal of INFα treatment wells*100%
The curve was plotted as the inhibition % (y-axis) vs. compounds concentration (x-axis) and is fitted with log(inhibitor) vs. normalized response—Variable slope by GraphPad Prism7.0.

Sequence of human TYK2 (JH2domain-pseudokinase) (P29597 556-888): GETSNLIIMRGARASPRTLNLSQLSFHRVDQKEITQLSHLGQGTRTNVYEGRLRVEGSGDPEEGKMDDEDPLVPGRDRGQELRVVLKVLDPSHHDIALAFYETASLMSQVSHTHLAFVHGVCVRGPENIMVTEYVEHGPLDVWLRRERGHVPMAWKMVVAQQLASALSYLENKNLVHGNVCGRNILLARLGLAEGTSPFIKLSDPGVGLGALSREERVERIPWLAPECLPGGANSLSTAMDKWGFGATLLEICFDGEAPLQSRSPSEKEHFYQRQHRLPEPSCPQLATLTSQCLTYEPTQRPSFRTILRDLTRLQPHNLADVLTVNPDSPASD

| Kd [1] | Kd (TYK2 JH1) | Kd (JAK3 JH1) | Kd (JAK2 JH2) | Kd (JAK2 JH1) | Kd (JAK1 JH2) | Kd (JAK1 JH1) | Compound | IC50 (IFNa, PBMCs, p-STAT3) | IC50 [2] |
| --- | --- | --- | --- | --- | --- | --- | --- | --- | --- |
| < 0.01 µM | ≥ 30 µM | ≥ 30 µM | 10 to 30 µM | ≥ 30 µM | 1 to 10 µM | ≥ 30 µM | CNc1cc2nn3c(cnc13)C(=O)N[C@H](C)COCc1cc(c3nnn(C)c3c1)N2 [Compound 5] | < 0.05 µM | < 0.05 µM |
| < 0.01 µM | 1 to 10 µM | ≥ 30 µM | 1 to 10 µM | ≥ 30 µM | 0.01 to 1 µM | ≥ 30 µM | CNc1cc2nn3c(cnc13)C(=O)N[C@H](C)COCc1cc(c3nn(C)nc3c1)N2 [Compound 6] | < 0.05 µM | < 0.05 µM |
